From patent US20220030866A1, “CONJUGATES OF AUXIN ANALOGS” (The State of Israel, Ministry of Agriculture & Rural …, priority 2019, published 2022)

How the values were obtained:
Arabidopsis seedlings [1] = test: adventitious root formation in intact etiolated Arabidopsis seedlings; assay type: in vivo; settings: intact etiolated seedlings; 50 nM, FIG. 17 legend 10 μM for one hour
Description: (§1) Adventitious roots (ARs) were induced in intact plants, using previously described procedures [Gutierrez et al., Plant Cell 2009, 21:3119-3132; Abu-Abied et al., Plant J 2012, 71:787-799; Rasmussen et al., Plant Physiol 2012, 158:1976-1987]. Briefly, seeds were germinated on MS/0.8% agar plates supplemented with 3% sucrose. The plates were kept in the dark for 2 days at 4° C., then 5 days at 22° C. in the dark, 2 days in the light, 3 days in the dark and then additional 4 days in the light to complete 2 weeks when roots were counted using a stereoscope. Sensitivity to auxin and/or auxin analogs was determined by following root elongation on vertical plates. The 4-day-old seedlings were transferred to MS plates containing 0.05 or 0.5 μM IAA and the root length was measured after 5 days, including the number of LRs in each root and calculation of the LR density. Each treatment experiment included 10-15 plants and was repeated 3 times.
In a third assay utilizing an Arabidopsis model, induction of adventitious root AR formation in intact plants was examined in the presence of 50 nM of tested compounds, which included 5 days incubation in the dark, followed by a shift to the light, according to procedures described by Sorin et al. [Plant Cell 2005, 17:1343-1359].
Conjugates prepared as described herein were evaluated in an Arabidopsis rooting model, according to procedures such as described hereinabove. Seeds were germinated and kept in the dark for 4 days. The etiolated seedlings were then incubated for 1 hour in 10 μM of each compound and then transferred to vertical MS medium-containing plates.

DR5:venus marker = test: auxin activity by DR5:venus fluorescence in Arabidopsis plants; assay type: in vivo; settings: 10 μM
Description: Imaging was performed using an SP8 Leica confocal microscope including solid-state lasers producing 405, 488, 514 and 552 nm light, and hybrid or PMT detectors. Objectives were either PL APO 20×/0.75, WD 0.62 mm or PL APO 63×/1.2 WD 0.3 mm. For fluorescence measurements, the Imaris™ spot detection option (Bitplane A.G.) was used to segment nuclei and calculate the average signal intensity.
One technique for assessing auxin activity of the 4-CPA amino acid conjugates utilized plants expressing nucleus-localized, fluorescent DR5:venus marker, the expression level of which is an indicator of intracellular auxin activity [Laskowski et al., PLoS Biol 2008, 6:e307]. Four days old seedlings grown on regular MS medium were transferred to plates containing 10 μM of the tested compounds and fluorescence was inspected by confocal microscope after 24 hours.
In order to assess the ability of the abovementioned sodium salts to penetrate the cells and activate an auxin response, an Arabidopsis DR5-Venus model was utilized (as described hereinabove). The plants were exposed to 10 μM of each compound for 24 hour; MS medium was used as a negative control, and the related Compounds 1p, 1r and 1t were used as positive controls.

[2] = tested on: cuttings from mature Eucalyptus grandis trees; test: rooting of cuttings from mature Eucalyptus grandis trees; assay type: in vivo; settings: 100 μM compound by submerging or spraying, with 6000 ppm IBA
Arabidopsis seedlings [3] = test: split petri dish assay, separate shoot or root application in etiolated Arabidopsis seedlings; assay type: in vivo; settings: 10 μM
Source text: The observation that AR enhancement in Eucalyptus cuttings was higher when 4-CPA conjugates were applied also to the leaves (as described in Example 3) prompted further investigation into the functions of shoot-derived 4-CPA. To this end, 4-CPA or Compounds 1p and it were applied specifically to roots or shoots of five-day old etiolated Arabidopsis seedlings using a split petri dish (as depicted in FIG. 26) and the effect on root elongation, lateral root (LR) formation and adventitious root (AR) formation was evaluated.
Arabidopsis plants were germinated and grown in the dark for 5 days, then then transferred to petri dishes with a partition in the middle. Each half of these plates contained either medium alone or with 10 μM of 4-CPA or Compound 1p or 1tl. The etiolated seedlings were put on the plates with their collet region on the partition such that either the hypocotyl and cotyledons, or the root or both were in touch with the medium containing the tested compound. Adventitious roots and lateral roots were counted and the length of the primary root was measured after a week.

mung bean cuttings = test: rooting of mung bean cuttings (number of adventitious roots per cutting); assay type: in vivo; settings: for rooting of mung bean cuttings (number of roots per cutting): 50 μM
Outline: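 Readout was the number of adventitious roots per cutting in mung bean cuttings. Conjugates of 4-CPA, MCPA and 2-DP were tested alongside unconjugated IBA and 2-DP–glycine methyl ester.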

[4] = tested on: cuttings from mature Eucalyptus grandis trees; test: rooting of cuttings from mature Eucalyptus grandis trees; assay type: in vivo
Outline: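 Cuttings (12-15 cm, two upper leaves halved) from branches of 8-year-old net-house plants; bases dipped 1 min in 6000 ppm IBA potassium salt plus 50 μM conjugate, leaves sprayed with 50 μM conjugate in 0.5% Triton X-100. Rooted at 25° C, 90% humidity, peat:vermiculite:polystyrene 1:2:3; rooting scored after 30-60 days.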

Arabidopsis seedlings [5] = test: root elongation inhibition in Arabidopsis seedlings; assay type: in vivo; settings: for effect on root elongation relative to control, in words: after 5 days
Description: as §1
A common technique for evaluating auxin activity is by determining the ability of a compound to inhibit root elongation [Zolman et al., Genetics 2000, 156:1323-1337]. In order to use this assay for comparing auxin activities of different conjugates, the minimum concentration of free 4-CPA that is active in the root elongation inhibition assay was determined. Four days old seedlings were placed in vertical plates containing increasing concentrations of 4-CPA. The root lengths were marked daily during 5 days.
Based on the above results, the effect of conjugates of 4-CPA (Compounds 1o-1t) on root elongation after 5 days was determined at concentrations of 50 nM.

[6] = tested on: Eucalyptus x trabutii cuttings; test: rooting of Eucalyptus x trabutii cuttings; assay type: in vivo; settings: K-IBA alone or with 100 μM compound
Description: (§2) In order to investigate cloning of productive eucalyptus trees from cuttings, branches were excised from mature Eucalyptus x trabutii and Eucalyptus brachyphylla trees the field (in Kfar Pines, Israel)—selected based on their exceptional nectar production and honeybee attraction—placed in a humidified cooler box and brought to a climate-controlled greenhouse within 2 hours. Each cutting, 7 cm long, included three nodes with only two leaves remaining at its apical end. Two-thirds of each blade was excised to minimize evapotranspiration. The cutting bases were submerged for 1 minute in 6 grams/liter indole-3-butyric acid potassium salt (K-IBA), optionally supplemented with Compound 1s or 1t at a concentration of 100 μM. In addition, the leaves were sprayed with 100 μM of each compound in the presence of 0.05% Triton X-100 surfactant. Stock solutions of Compounds 1s and 1t were at a concentration of 100 mM in DMSO. The cuttings were planted in rooting medium containing peat, vermiculite and polystyrene flakes at a ratio of 1:2:3 respectively, on a heated rooting table under 90% humidity. Fungicides were applied to the rooting media on a weekly basis. Rooting percentage, number of roots per cutting and root length were measured after 1 and 2 weeks and after 1 and 2 months.

[7] = tested on: argan (Argania spinosa) cuttings; test: rooting of argan cuttings; assay type: in vivo; settings: after 1.5 months; compound with IBA, or IBA control
Description: The ability of exemplary conjugates to promote rooting in plants which are recalcitrant to rooting (in addition to the results obtained with Eucalyptus grandis in Example 3) was examined using cuttings of argan (Argania spinosa) and jojoba (Simmondsia chinensis) in a commercial nursery (Shorashim). The argan and jojoba cuttings were treated with 100 μM of a conjugate (any of Compounds 10-1t) with 6000 ppm IBA. The common treatment T-8 (talc with 8000 ppm IBA and a fungicide) or 6000 ppm IBA (without conjugate) served as a control.
Exemplary conjugates were also tested for rooting the hard-to-root species of avocado (VC801 rootstock) and argan, according to procedures described hereinabove.

[8] = tested on: avocado rootstock cuttings; test: rooting of avocado rootstock cuttings; assay type: in vivo
Outline: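 Green cuttings of avocado rootstock (including hard-to-root VC801) were treated with auxin conjugates in the presence of IBA and scored for rooting.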

[9] = tested on: cuttings from mature Eucalyptus grandis trees; settings: literature value for this model (Abu-Abied et al. 2012); cited from earlier work
[10] = tested on: Eucalyptus brachyphylla cuttings; test: rooting of Eucalyptus brachyphylla cuttings; assay type: in vivo; settings: K-IBA alone or with 100 μM compound
Description: as §2

cannabis clone = test: rooting of a difficult to root cannabis clone; assay type: in vivo; settings: 6000 ppm IBA with 50 μM compound for 1 minute; 2 weeks; vs IBA alone
Description: Cannabis is usually an easy to root plant. […] A relatively difficult to root cannabis clone was treated with 6000 ppm IBA or with a similar treatment combined with 50 μM of Compound 82 (4-CPA-L-Trp sodium salt) for 1 minute. Rooting was scored after 2 weeks.

[11] = tested on: transgenic citrus rootstocks; test: rooting of transgenic citrus rootstocks in tissue culture; assay type: in vivo; settings: 0% without compound, data not shown
Source text: Compound 82 was also used to induce rooting of transgenic citrus rootstocks in tissue culture. It is well known that shoots created in tissue culture conditions following genetic modifications are typically difficult to root. Using Compound 82, 60% rooting was obtained, as compared to 0% without Compound 82 (data not shown).

## COC(=O)[C@@H](NC(=O)COc1ccc(Cl)cc1)C(C)C [Compound 1p, 4-CPA-L-Val]
Arabidopsis seedlings [1]
  adventitious roots formed on average: 7±1.4
DR5:venus marker
  effect on root tip and root elongation zone: loss of auxin activity at the root tip, and swelling of the root elongation zone
[2]
  rooting in combination with IBA compared with IBA alone, in words: at least as potent as that of their corresponding D-amino acid conjugates
Arabidopsis seedlings [3]; 24 hours on split dish
  effect on root growth of application to the shoot compared with application directly to the root: even stronger
Arabidopsis seedlings [3]; split dish
  adventitious root formation, exposure of shoots compared to exposure of roots: significantly more adventitious root formation
  lateral root formation, shoot application compared with root application: inhibited lateral root formation more efficiently than application to roots
Mung bean cuttings; tested at 2, 10 or 50 μM
  effect on AR formation in mung bean cuttings, in words: induced rooting only at low concentrations
[4]; 6000 ppm IBA and 100 μM conjugate by submersion of base plus spraying of foliage
  percentage of adventitious root formation (rooting): 51±8%
[4]; 6000 ppm IBA with 100 μM compound, submersion and spraying
  appearance of the roots compared with IBA alone: appeared more branched
Arabidopsis seedlings [5]; 50 nM
  effect on root elongation relative to control, in words: inhibited root elongation relative to control
Arabidopsis seedlings [5]; 50 nM, slight inhibition until day 3, complete from day 4
  time course of root elongation inhibition: biphasic behavior

## O=C(O)CCCc1c[nH]c2ccccc12 [IBA, indole-3-butyric acid, reference compound]
[6]
  mean root number per cutting, E. x trabutii: about 5
[7]
  rooting in argan clone YM3: 50%
  roots per cutting in argan clone YM3: 2-3
[8]; VC801 rootstock, conjugate, or IBA control
  rooting of VC801 avocado cuttings: about 35%
[8]; vc51 rootstock, IBA
  rooting rate of etiolated avocado branches: 80%
  rooting rate of green avocado branches: 10%
[9]
  root development in the presence of IBA potassium salt: 5-15%
Mung bean cuttings; Table 1, water control 29.6
  rooting of mung bean cuttings (number of roots per cutting): 81.0
Mung bean cuttings; Table 2
  rooting of mung bean cuttings (number of roots per cutting): 101
[10]
  mean root number per cutting, E. brachyphylla: about 4
[4]; 100 μM conjugate without IBA, or 28 mM (6000 ppm) IBA alone, submerging base or spraying, scored after 45-60 days
  percentage of cuttings which exhibited rooting, stand-alone treatment: 12%
[4]; Example 12 repeat: 6000 ppm IBA with 50 μM conjugate, or IBA control
  rooting of cuttings, repeated experiment in a different season: 10%
Arabidopsis seedlings [5]; 50 nM
  effect on root elongation relative to control, in words: no apparent inhibitory effect on root elongation
Arabidopsis seedlings [5]; 4 day old seedlings, 5 days on vertical plates
  concentration required to inhibit root elongation: 1 to 10 µM

## O=C(COc1ccc(Cl)cc1)N[C@@H](Cc1c[nH]c2ccccc12)C(=O)[O-].[Na+] [Compound 82, 4-CPA-L-Trp sodium salt]
DR5:venus marker
  DR5 fluorescence (auxin activity), in words: about as active as their non-water soluble methyl esters
Cannabis clone
  number of roots in cannabis, in words: significant increase in number of roots
  rooting percentage in cannabis, in words: small increase in the rooting percentage
[11]
  rooting of transgenic citrus rootstocks: 60%
[7]
  rooting in argan clone YM3: 80%
  roots per cutting in argan clone YM3: about 7
[8]; VC801 rootstock
  root architecture / root length of VC801 avocado cuttings compared to IBA control, in words: considerably increased root length
